Measured values from ChEMBL document CHEMBL4038296, “A bromopyrrole-containing diterpene alkaloid from the Okinawan marine sponge Agelas nakamurai activates the insulin pathway in Huh-7 human hepatoma cells by inhibiting protein tyrosine phosphatase 1B” (Bioorg Med Chem Lett, 2017).
The source made the active and inactive calls. The calls are words filed in the database; no cut-off is given here.

Key:
[1] = molecular target: RAC-alpha serine/threonine-protein kinase (Homo sapiens) (UniProt P31749); assay: Activation of AKT in human Huh7 cells assessed as increase in insulin-stimulated Akt phosphorylation preincubated for 1 to 2 hrs followed by insulin addition measured after 5 mins by Western blot method; type: cell-based
[2] = molecular target: T1, Receptor-type tyrosine-protein phosphatase C (Homo sapiens, UniProt P08575); assay: Inhibition of human recombinant CD45 using pNPP as substrate preincubated for 10 mins followed by substrate addition measured after 30 mins
T1 sequence (P08575 whole entry): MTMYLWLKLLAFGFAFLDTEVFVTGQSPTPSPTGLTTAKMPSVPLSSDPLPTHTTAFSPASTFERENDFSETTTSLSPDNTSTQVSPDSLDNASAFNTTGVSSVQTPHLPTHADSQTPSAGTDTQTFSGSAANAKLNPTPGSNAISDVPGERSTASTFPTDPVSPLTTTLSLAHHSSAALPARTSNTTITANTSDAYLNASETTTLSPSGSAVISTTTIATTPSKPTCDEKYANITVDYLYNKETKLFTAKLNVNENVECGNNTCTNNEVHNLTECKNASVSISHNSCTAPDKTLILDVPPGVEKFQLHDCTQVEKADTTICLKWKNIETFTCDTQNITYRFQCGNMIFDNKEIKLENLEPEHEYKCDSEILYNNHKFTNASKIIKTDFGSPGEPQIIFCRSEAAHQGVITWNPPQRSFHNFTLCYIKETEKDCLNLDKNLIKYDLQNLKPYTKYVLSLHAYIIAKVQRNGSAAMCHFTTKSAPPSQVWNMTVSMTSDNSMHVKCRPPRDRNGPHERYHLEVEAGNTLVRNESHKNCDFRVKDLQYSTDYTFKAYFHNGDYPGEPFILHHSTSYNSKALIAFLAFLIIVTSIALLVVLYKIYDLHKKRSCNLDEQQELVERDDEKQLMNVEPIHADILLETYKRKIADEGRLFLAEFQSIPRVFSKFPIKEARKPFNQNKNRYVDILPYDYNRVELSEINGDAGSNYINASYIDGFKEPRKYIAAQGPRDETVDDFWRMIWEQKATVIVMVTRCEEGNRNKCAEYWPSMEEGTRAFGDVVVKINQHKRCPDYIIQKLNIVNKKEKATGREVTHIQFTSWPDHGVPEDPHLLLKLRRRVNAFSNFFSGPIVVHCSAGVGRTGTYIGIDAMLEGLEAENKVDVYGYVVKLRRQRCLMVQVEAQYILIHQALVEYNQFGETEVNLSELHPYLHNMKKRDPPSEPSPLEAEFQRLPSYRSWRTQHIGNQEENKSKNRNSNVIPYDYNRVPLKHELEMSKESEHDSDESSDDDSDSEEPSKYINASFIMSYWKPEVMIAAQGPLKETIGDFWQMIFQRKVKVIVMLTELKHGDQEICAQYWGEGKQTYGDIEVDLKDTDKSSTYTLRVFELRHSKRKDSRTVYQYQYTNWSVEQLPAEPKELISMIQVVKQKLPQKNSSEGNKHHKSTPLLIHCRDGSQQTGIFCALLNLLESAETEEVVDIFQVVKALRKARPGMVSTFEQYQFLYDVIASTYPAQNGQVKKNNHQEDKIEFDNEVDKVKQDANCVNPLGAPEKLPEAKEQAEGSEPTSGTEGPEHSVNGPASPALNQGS

[3] = molecular target: Dual specificity protein phosphatase 3 (Homo sapiens, UniProt P51452); assay: Inhibition of human recombinant VHR expressed in Escherichia coli using pNPP as substrate preincubated for 10 mins followed by substrate addition measured after 30 mins
[4] = molecular target: T2, Tyrosine-protein phosphatase non-receptor type 1 (Homo sapiens, UniProt P18031); assay: Inhibition of human recombinant PTP1B (1 to 322 residues) expressed in Escherichia coli using pNPP as substrate preincubated for 10 mins followed by substrate addition measured after 30 mins
T2 sequence (P18031 whole entry): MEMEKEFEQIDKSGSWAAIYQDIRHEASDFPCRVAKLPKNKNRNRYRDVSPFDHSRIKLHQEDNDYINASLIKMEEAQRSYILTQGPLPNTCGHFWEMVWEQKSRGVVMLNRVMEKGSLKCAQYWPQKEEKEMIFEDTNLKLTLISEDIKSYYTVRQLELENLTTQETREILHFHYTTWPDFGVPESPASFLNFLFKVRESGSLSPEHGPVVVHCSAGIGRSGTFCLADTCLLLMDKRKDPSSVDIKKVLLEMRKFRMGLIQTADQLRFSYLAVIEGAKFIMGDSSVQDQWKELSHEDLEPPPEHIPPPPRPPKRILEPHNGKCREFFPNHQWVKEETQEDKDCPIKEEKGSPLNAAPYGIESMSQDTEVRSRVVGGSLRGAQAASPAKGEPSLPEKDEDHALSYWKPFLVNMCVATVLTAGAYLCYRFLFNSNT

[5] = molecular target: RAC-alpha serine/threonine-protein kinase (Homo sapiens) (UniProt P31749); assay: Induction of Akt phosphorylation in human Huh7 cells measured after 2 hrs by Western blot method; type: cell-based
[6] = molecular target: T3, Tyrosine-protein phosphatase non-receptor type 2 (Homo sapiens, UniProt P17706); assay: Inhibition of human recombinant TCPTP (1 to 317 residues) expressed in Escherichia coli using pNPP as substrate preincubated for 10 mins followed by substrate addition measured after 30 mins
T3 sequence (P17706 whole entry): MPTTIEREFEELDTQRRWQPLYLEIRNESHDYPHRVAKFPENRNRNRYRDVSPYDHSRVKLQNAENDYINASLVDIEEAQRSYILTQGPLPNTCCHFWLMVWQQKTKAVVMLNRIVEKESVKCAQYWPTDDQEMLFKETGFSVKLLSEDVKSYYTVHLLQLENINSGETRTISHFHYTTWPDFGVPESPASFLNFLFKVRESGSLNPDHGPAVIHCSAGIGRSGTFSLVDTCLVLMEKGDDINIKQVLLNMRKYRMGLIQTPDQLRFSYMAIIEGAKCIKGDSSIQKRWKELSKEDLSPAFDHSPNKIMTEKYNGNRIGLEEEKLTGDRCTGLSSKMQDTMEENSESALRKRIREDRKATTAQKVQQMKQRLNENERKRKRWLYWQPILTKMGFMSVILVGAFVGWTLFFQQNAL

[7] = molecular target: RAC-alpha serine/threonine-protein kinase (Homo sapiens) (UniProt P31749); assay: Induction of Akt phosphorylation in human Huh7 cells up to 50 uM measured after 2 hrs by Western blot method; type: cell-based
[8] = molecular target: T4, Tyrosine-protein phosphatase non-receptor type 1 (Homo sapiens) (UniProt P18031); assay: Inhibition of PTP1B in human Huh7 cells assessed as increase in insulin-stimulated Akt phosphorylation preincubated for 1 to 2 hrs followed by insulin addition measured after 5 mins by Western blot method; type: cell-based
T4 sequence (whole entry): T2 sequence (P18031 whole entry)

RAC-alpha serine/threonine-protein kinase (Homo sapiens), sequence (P31749 whole entry, the tested form may be a part): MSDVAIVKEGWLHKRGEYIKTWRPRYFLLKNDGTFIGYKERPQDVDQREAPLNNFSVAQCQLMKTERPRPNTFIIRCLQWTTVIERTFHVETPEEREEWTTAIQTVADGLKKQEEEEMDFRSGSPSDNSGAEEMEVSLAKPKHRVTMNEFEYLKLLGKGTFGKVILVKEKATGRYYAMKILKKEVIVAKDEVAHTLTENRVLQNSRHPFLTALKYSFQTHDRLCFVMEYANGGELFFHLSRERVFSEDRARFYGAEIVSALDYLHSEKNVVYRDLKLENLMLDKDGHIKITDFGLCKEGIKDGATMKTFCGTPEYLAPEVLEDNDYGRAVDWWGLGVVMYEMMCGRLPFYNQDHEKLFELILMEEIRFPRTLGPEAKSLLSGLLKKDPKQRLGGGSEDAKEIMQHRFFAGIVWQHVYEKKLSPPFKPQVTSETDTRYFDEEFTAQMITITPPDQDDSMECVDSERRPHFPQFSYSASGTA
Dual specificity protein phosphatase 3, sequence (P51452 whole entry, the tested form may be a part): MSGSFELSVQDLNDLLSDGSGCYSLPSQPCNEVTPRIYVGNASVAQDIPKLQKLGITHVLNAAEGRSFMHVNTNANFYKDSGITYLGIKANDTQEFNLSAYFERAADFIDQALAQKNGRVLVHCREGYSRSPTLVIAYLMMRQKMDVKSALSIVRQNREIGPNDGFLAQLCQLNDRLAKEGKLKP

| SMILES | Activity [1] | IC50 [2] [µM] | IC50 [3] [µM] | IC50 [4] [µM] | Activity [5] | IC50 [6] [µM] | Activity [7] | inhibition [8] |
| --- | --- | --- | --- | --- | --- | --- | --- | --- |
| C/C(=C\Cn1c[n+](C)c2ncnc(N)c21)CC[C@]1(C)[C@@H](C)CC[C@@]2(C)C(COC(=O)c3ccc[nH]3)=CCC[C@@H]12 | Dose-dependent effect | > 19 | > 19 | > 19 | Dose-dependent effect | > 19 | inactive |  |
| C/C(=C\Cn1c[n+](C)c2ncnc(N)c21)CC[C@]1(C)[C@@H](C)CC[C@@]2(C)C(COC(=O)c3cc(Br)c[nH]3)=CCC[C@@H]12 |  |  |  |  | Dose-dependent effect |  | inactive | Dose-dependent effect |
| C/C(=C\C[n+]1cn(C)c2ncnc(N)c21)CC[C@]1(C)[C@@H](C)CC[C@@]2(C)C(COC(=O)c3cc(Br)c[nH]3)=CCC[C@@H]12 |  | > 16 | 13 | 15 |  | > 16 |  |  |
